Measurements taken from PubChem BioAssay (NCI).
“And” between values parts separate entries of the source, which are not always exact repeats. Equal values may be shown once.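 Briefly, cells in 96-well plates were exposed to five compound concentrations for 48 h, and endpoints were estimated by linear interpolation. Here, GI50 denotes the concentration required for 50% inhibition of growth. TGI: total growth inhibition.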

How the values were obtained:
Assay in all cases: growth of human tumour cells (NCI), 48 h
ACHN renal = test system: ACHN renal
LOX IMVI melanoma = test system: LOX IMVI melanoma
UACC-257 melanoma = test system: UACC-257 melanoma
HCT-116 colon = test system: HCT-116 colon
NCI-H226 lung = test system: NCI-H226 lung
UACC-62 melanoma = test system: UACC-62 melanoma
UO-31 renal = test system: UO-31 renal
SF-539 CNS = test system: SF-539 CNS
DU-145 prostate = test system: DU-145 prostate
NCI/ADR-RES ovarian = test system: NCI/ADR-RES ovarian

Row | Structure (SMILES) | TGI (ACHN renal) [µM] | TGI (LOX IMVI melanoma) [µM] | TGI (UACC-257 melanoma) [µM] | TGI (HCT-116 colon) [µM] | TGI (NCI-H226 lung) | TGI (UACC-62 melanoma) [µM] | TGI (UO-31 renal) [µM] | TGI (SF-539 CNS) | GI50 (SF-539 CNS) [µM] | GI50 (ACHN renal) [µM] | GI50 (LOX IMVI melanoma) [µM] | GI50 (DU-145 prostate) [µM] | TGI (DU-145 prostate) [µM] | GI50 (HCT-116 colon) [µM] | GI50 (NCI-H226 lung) [µM] | GI50 (UACC-62 melanoma) [µM] | GI50 (UO-31 renal) [µM] | GI50 (NCI/ADR-RES ovarian) | TGI (NCI/ADR-RES ovarian) [µM] | GI50 (UACC-257 melanoma) [µM]
1 | CCCCCCCCCCCCCCCCCC(=O)OCC(CN(C)CCN(C)C)OC(=O)CCCCCCCCCCCCCCCCC (stereo not given) | > 100 | > 100 | > 100 | > 100 | > 100 µM | > 100 | > 100 |  |  |  |  |  |  |  |  |  |  |  |  | 
2 | Cc1cccc(C(C)(C)C)c1NC(=O)C(=O)C(C(=O)/C=C\c1ccccc1)C1OC(=O)c2ccccc21 (stereo not given) | > 100 | > 100 | > 100 | > 100 | > 100 µM | > 100 | > 100 | > 100 µM |  |  |  |  |  |  |  |  |  |  |  | 
3 | O=C1C(Cl)C(c2cccc(O)c2)N1n1cnc2ccccc2c1=O (stereo not given) | > 100 | > 100 | > 100 | > 100 | > 100 µM | > 100 | > 100 |  |  |  |  |  |  |  |  |  |  |  |  | 
4 | CSc1nc(NC2OCC(OC(C)=O)C(OC(C)=O)C2OC(C)=O)c2c(OC(C)=O)c(C)c(=O)oc2n1 (stereo not given) | > 100 | > 100 | > 100 | > 100 | > 100 µM | > 100 | > 100 | > 100 µM |  |  |  |  |  |  |  |  |  |  |  | 
5 | O=C1C(Cl)=C(Cl)C(=O)N1C1C2CC3CC(C2)CC1C3 (stereo not given) | > 100 | > 100 | > 100 | > 100 | > 100 µM | > 100 | > 100 | > 100 µM |  |  |  |  |  |  |  |  |  |  |  | 
6 | N[C@@H](Cc1c[nH]c2ccccc12)C(=O)NC1CCN(C(=O)c2c[nH]c3ccccc23)CC1 | > 100 | > 100 |  | > 100 | > 100 µM | > 100 | > 100 | > 100 µM | > 100 | > 100 | 96.1 | 72.2 | > 100 | 36.3 | > 100 | > 100 | > 100 | > 100 µM | > 100 | 
7 | CCCCCCCCCCC/C(=N/O)c1ccc(O)c2ncccc12 | 6.14 | 13.6 | 24.2 | 59.9 | 11.9 µM |  | 11.4 | 4.91 µM |  |  |  |  |  |  |  |  |  |  |  | 
8 | Clc1ccc(Cl)c2[s+]snc12 | > 100 | > 100 | > 100 | > 54.9 | > 100 µM | > 100 | > 100 | > 100 µM |  |  |  |  |  |  |  |  |  |  |  | 
9 | COc1cc(Nc2nc3cc(N)cc(N)c3nc2-c2ccccc2)cc(OC)c1 | 83.2 | 50.6 | 48 | 54.1 | 32.9 µM | 23.3 | 45 |  |  | 5.65 | 15.2 | 22.7 | > 100 | 16.9 | 2.9 | 7.33 | 8.87 | 12.9 µM | 73.4 | 15.9
10 | CC(C)NCCNC(=O)c1ccccc1Nc1c(Cl)cccc1Cl | 31.2 | 20.6 | 22.3 | 23.4 | 30.1 µM | 30.1 | 21.8 | 30.2 µM |  |  |  |  |  |  |  |  |  |  |  | 
11 | OCCCCC#Cc1ccccc1C#Cc1ccccc1 | 29.1 |  | 43.8 | 31.6 | 35.3 µM | 23.5 | > 100 | 24.1 µM | 10.8 | 15.2 |  | 5.22 | 20.2 | 16.8 | 16.2 | 11.1 | 28.4 | 17 µM | 47.3 | 19.4
12 | CC1OC(n2ncc(=O)[nH]c2=O)C=CC1=O (stereo not given) | > 100 | > 100 | > 100 | > 100 | > 100 µM | > 100 | > 100 | > 100 µM and 47.9 µM |  |  |  |  |  |  |  |  |  |  |  | 37
13 | COCCn1cc(-c2csc(-c3c[nH]c4ccccc34)n2)c2cccnc21 | > 100 | > 100 | > 100 | > 100 |  | > 100 | > 100 | > 100 µM | 5.91 | 5.59 | 3.96 | 15.4 | > 100 | 3.63 |  | 4.58 | 4.15 | 1.76 µM | 6.9 | > 100
14 | [Cl][Bi]([O]c1ccccn1)[O]c1ccccn1 | > 100 | > 100 | > 100 | > 100 |  | > 100 | > 100 | > 100 µM | > 100 | > 100 | > 100 |  |  | > 100 |  | > 100 | > 100 |  |  | > 100
15 | CC(O)/C=C/C(CCC(C)CO)C(C)C (stereo not given) | > 100 | > 100 | > 100 | > 100 |  | > 100 | > 100 | > 100 µM |  |  |  |  |  |  |  |  |  |  |  | 
16 | Cc1ccc(NC(=O)CC2C(=O)Nc3ccccc3S2=O)cc1C (stereo not given) | > 100 | > 100 | > 100 | > 100 | > 100 µM | > 100 | > 100 | 47.5 µM |  |  |  |  |  |  |  |  |  |  |  | 
17 | CC(=O)O[C@H]1C(=O)[C@@]2(C)C(C(OC(=O)c3ccccc3)[C@]3(O)CC(OC(=O)[C@H](OC(=O)CCC(=O)O)C(NC(=O)c4ccccc4)c4ccccc4)C(C)=C1C3(C)C)C1(OC(C)=O)COC1C[C@@H]2OC(=O)CCC(=O)O (stereo not given in full) | > 100 | > 100 | > 100 | > 100 | 81.1 µM and > 100 µM | 29.3 | > 100 | 2.72 µM |  |  |  |  |  |  |  | 2.05 |  | > 100 µM and 26.6 µM | > 100 | 
18 | N#CC(C(=O)/C(=N/N)C(C#N)c1ccc(Cl)cc1)c1ccc(Cl)cc1 (stereo not given) | > 100 | > 100 | > 100 | > 100 | > 100 µM | > 100 | > 100 | > 100 µM |  |  |  |  |  |  |  |  |  |  |  | 
